This passage reports LD50 and inhibition in vivo results from patent US4582839A, “2,4-thiazolidinediones” (Takeda Chemical Industries, Ltd., priority 1985, dated 1986).

Series [1] in a line: Acute oral toxicity (LD50) in rat. The conditions noted are these: in vivo, administered orally. As to the method: With reference to the method of administration, they are normally usable orally for example in the form of tablets, capsules, powders, granules, etc., but can also be administered parenterally in the form of injectable solutions, suppositories, pellets, etc., as the case may be. In the case of their being employed as a therapeutic agent for diabetes, they can be normally administered orally in daily doses of 0.05 mg to 10 mg/kg or parenterally in daily doses of 0.01 mg to 10 mg/kg, per adult human, and in the case of their being utilized as a therapeutic agent for hyperlipemia, they can be normally given orally in daily doses of 0.05 mg to 10 mg/kg or parenterally in daily doses of 0.01 mg to 10 mg/kg, per adult human, whereby it is desirable to administer such quantities once daily or intermittently twice to four times weekly.

Series [2] has as its system KKAy mice. The series can be described thus: Blood sugar- and lipid-lowering activity in mice (test compound 0.005% in diet, 4 days). The conditions noted are these: Mus musculus, feed or water, 96 h, 0.005% in powder diet, male KKAy mice. The format is in vivo. As to the method:
Blood sugar- and lipid-lowering activity in mice.
0.005% of a test compound was mixed with a powder diet (CE-2, produced by CLEA JAPAN), and KKAy mice (male, 8 to 10 weeks of age, 5 mice/group) were placed on the diet for 4 days, and allowed free access to water throughout the experiment. Blood samples were taken from the orbital veins and assayed for blood sugar by the glucose oxidase method and for plasma triglyceride by the enzyme method in which the produced glycerol was determined by means of Cleantech TG-S Kit (Yatron), respectively. The respective values are expressed in terms of rate of lowering (%) from the values of control group not receiving the test compound.

Setting [3] is: enzyme method (Cleantech TG-S Kit), read-out: Hypolipemic activity (rate of lowering of plasma triglyceride from control group).
Setting [4] is: glucose oxidase method, read-out: Hypoglycemic activity (rate of lowering of blood sugar from control group).

A word on the LD50: it is the dose at which mortality reaches 50%.

Read-outs that look alike come from different tables or passages of the source.

`CCc1ccc(C(CO)COc2ccc(CC3SC(=O)NC3=O)cc2)nc1` (stereo not shown) [5-{4-[2-(5-ethyl-2-pyridyl)-3-hydroxypropoxy]benzyl}-2,4-thiazolidinedione] came in with an LD50 in series [1] of no less than 5000 mg/kg.
For `Cc1cccc(C(O)COc2ccc(CC3SC(=O)NC3=O)cc2)n1` (stereo not shown) [Example 1, 5-{4-[2-hydroxy-2-(6-methyl-2-pyridyl)ethoxy]benzyl}-2,4-thiazolidinedione], in series [1], the LD50 was no less than 5000 mg/kg. For the same molecule, the inhibition in vivo at 0.005 %, 0.005 % in diet in series [2] (setting [3]) is 47%; in series [2] (setting [4]), 45%.
Taken in the same sequence, the figures for `Cc1cccnc1C(CO)COc1ccc(CC2SC(=O)NC2=O)cc1` (stereo not shown) [Example 2, 5-{4-[3-hydroxy-2-(3-methyl-2-pyridyl)propoxy]-benzyl}-2,4-thiazolidinedione] were no less than 5000 mg/kg, 11% and 22%.
The corresponding values for `CCc1ccc(C(O)COc2ccc(CC3SC(=O)NC3=O)cc2)nc1` (stereo not shown) [Example 3, 5-{4-[2-(5-ethyl-2-pyridyl)-2-hydroxyethoxy]benzyl}-2,4-thiazolidinedione] are no less than 5000 mg/kg, 35% and 32%.
Regarding `CCc1ccc(C(CO)COc2ccc(CC3SC(=O)NC3=O)cc2)nc1` (stereo not shown) [Example 4, 5-{4-[2-(5-ethyl-2-pyridyl)-3-hydroxypropoxy]benzyl}-2,4-thiazolidinedione], the inhibition in vivo at 0.005 %, 0.005 % in diet is 38% in series [2] (setting [3]) and 45% in series [2] (setting [4]).
In series [1], `CC(=O)OC(COc1ccc(CC2SC(=O)NC2=O)cc1)c1cccc(C)n1` (stereo not shown) [Example 5, 5-{4-[2-acetoxy-2-(6-methyl-2-pyridyl)ethoxy]benzyl}-2,4-thiazolidinedione] yielded an LD50 of no less than 5000 mg/kg.
With `CCc1ccc(C(COC(C)=O)COc2ccc(CC3SC(=O)NC3=O)cc2)nc1` (stereo not shown) [Example 6, 5-{4-[3-acetoxy-2-(5-ethyl-2-pyridyl)propoxy]benzyl}-2,4-thiazolidinedione], the LD50 in series [1] is no less than 5000 mg/kg.
On to `Cc1cccnc1C(O)COc1ccc(CC2SC(=O)NC2=O)cc1` (stereo not shown) [Example 7, 5-{4-[2-Hydroxy-2-(3-methyl-2-pyridyl)ethoxy]benzyl}-2,4-thiazolidinedione], for which the inhibition in vivo at 0.005 %, 0.005 % in diet in series [2] (setting [3]) was 58%; in series [2] (setting [4]), 53%.
`O=C1NC(=O)C(Cc2ccc(OCC(O)c3ccccn3)cc2)S1` (stereo not shown) [Example 8, 5-{4-[2-Hydroxy-2-(2-pyridyl)ethoxy]benzyl}-2,4-thiazolidinedione]: the figures for the inhibition in vivo at 0.005 %, 0.005 % in diet in series [2] (setting [3]) and in series [2] (setting [4]) were 53% and 47%, respectively.
With `Cc1ccc(C(O)COc2ccc(CC3SC(=O)NC3=O)cc2)nc1` (stereo not shown) [Example 9, 5-{4-[2-Hydroxy-2-(5-methyl-2-pyridyl)ethoxy]benzyl}-2,4-thiazolidinedione], the inhibition in vivo at 0.005 %, 0.005 % in diet in series [2] (setting [3]) was found to be 19%; in series [2] (setting [4]), 35%.
As to `Cc1cc(C)nc(C(O)COc2ccc(CC3SC(=O)NC3=O)cc2)c1` (stereo not shown) [Example 10, 5-{4-[2-(4,6-dimethyl-2-pyridyl)-2-hydroxyethoxy]benzyl}-2,4-thiazolidinedione], the inhibition in vivo at 0.005 %, 0.005 % in diet in series [2] (setting [3]) was 47%; in series [2] (setting [4]), 40%.
